Laboratory results from patent US8008262B2, “β-peptides” (Yale University, priority 2004, dated 2011).
Read-outs that look alike come from different tables or passages of the source.

Experiments:
[1] = biological target: T1, hDM21-188 (hDM2) (Homo sapiens, UniProt Q00987); assay: Direct fluorescence polarization binding of fluorescein-labeled ligands to hDM2
[2] = biological target: T1, hDM21-188 (hDM2); assay: Competition fluorescence polarization (cFP) assay, inhibition of p53AD^Flu·hDM2 complexation; format: binding
[3] = biological target: CREB KID·CBP KIX complex (Homo sapiens, UniProt Q92793); assay: Inhibition of formation of the unrelated CREB KID·CBP KIX complex; format: binding; conditions: specificity control
Chain of CREB KID·CBP KIX complex (Q92793 587-666 limits assumed, one chain of several): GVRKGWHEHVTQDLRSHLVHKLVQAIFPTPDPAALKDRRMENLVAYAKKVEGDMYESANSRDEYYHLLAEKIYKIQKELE

[4] = Analytical ultracentrifugation, oligomeric state; format: physicochemical
[5] = Circular dichroism: extent of 14-helix structure in aqueous buffer; format: physicochemical; conditions: initial CD comparison of β53-1D and β53-1
[6] = system: IZN17; assay: Competition fluorescence polarization, inhibition of C14wt^Flu·IZN17 complexation; parameters: species or system HIV; conditions: read-out: IC50, competition with C14wt^Flu for IZN17 binding
[7] = biological target: calmodulin (Homo sapiens, UniProt P0DP23); conditions: read-out: Kd for calmodulin
[8] = system: HeLa-CD4-LTR-β-gal cells and CHO-SEC cells; assay: Cell-fusion assay (syncitia formation), gp41 mediated fusion; format: cell-based, HIV-1; conditions: read-out: EC50, inhibition of cell-cell-fusion
[9] = biological target: IZN17; assay: Direct fluorescence polarization binding to gp41 model IZN17; parameters: species or system HIV; conditions: fluorescein-labeled ligand, direct FP; read-out: equilibrium affinity (Kd) for IZN17
[10] = biological target: carbonic anhydrase II (Homo sapiens, UniProt P00918); conditions: read-out: Kd for carbonic anhydrase II
[11] = read-out: binding affinity (Kd) for hDM2
[12] = read-out: IC50, inhibition of p53AD^Flu·hDM2 interaction
[13] = fluorescein-labeled ligand, read-out: Kd, apparent equilibrium dissociation constant of complexes between fluorescein-labeled ligands and hDM2
[14] = competition FP, unlabeled ligand
[15] = concentrations between 80 and 400 μM

T1 sequence (Q00987 1-188 limits assumed): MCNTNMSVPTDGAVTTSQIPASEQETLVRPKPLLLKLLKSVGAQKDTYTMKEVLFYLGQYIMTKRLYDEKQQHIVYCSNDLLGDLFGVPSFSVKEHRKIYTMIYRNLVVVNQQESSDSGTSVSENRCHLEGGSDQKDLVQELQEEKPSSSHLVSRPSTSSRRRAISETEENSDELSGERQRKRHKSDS

Structure (SMILES): CC[C@H](C)[C@@H](CC(=O)N[C@H](CC(=O)N[C@@H](CCC(=O)O)CC(=O)N[C@H](CC(=O)N[C@H](CC(=O)N[C@@H](CCCN)CC(=O)N[C@H](CC(=O)N[C@H](CC(=O)N[C@@H](CCC(=O)O)CC(=O)O)Cc1ccccc1)[C@@H](C)CC)Cc1c[nH]c2ccccc12)[C@@H](C)CC)CC(C)C)NC(=O)C[C@@H](N)CCCN [Hit 1]
- Kd [1, 11]: 0.055 ± 0.008 µM
- IC50 [2, 12]: 13 ± 1 µM

Structure (SMILES): CC[C@H](C)[C@@H](CC(=O)N[C@H](CC(=O)N[C@@H](CCC(=O)O)CC(=O)N[C@H](CC(=O)N[C@H](CC(=O)N[C@@H](CCCN)CC(=O)N[C@H](CC(=O)N[C@H](CC(=O)N[C@@H](CCC(=O)O)CC(=O)O)Cc1ccccc1)C(C)C)Cc1c[nH]c2ccccc12)[C@@H](C)CC)CC(C)C)NC(=O)C[C@@H](N)CCCN [Hit 2]
- Kd [1, 11]: 0.089 ± 0.02 µM
- IC50 [2, 12]: 11 ± 1 µM

Structure (SMILES): CC(C)C[C@@H](CC(=O)N[C@@H](CCC(=O)O)CC(=O)N[C@H](CC(=O)N[C@H](CC(=O)N[C@@H](CCCN)CC(=O)N[C@H](CC(=O)N[C@H](CC(=O)N[C@@H](CCC(=O)O)CC(=O)O)Cc1ccccc1)C(C)C)Cc1c[nH]c2ccccc12)C(C)C)NC(=O)C[C@@H](NC(=O)C[C@@H](N)CCCN)C(C)C [β53-1]
- Kd [1, 13]: 0.37 ± 0.08 µM
- IC50 [2, 14]: 94.5 ± 4.4 µM
- inhibition of formation of CREB KID·CBP KIX complex [3]: failed to inhibit
- oligomeric state ([4]; at concentrations exceeding 1 mM): monomeric
- oligomeric state [4, 15]: monomeric
- mean residue ellipticity [5]: −8450.4 deg·cm^2·dmol^−1

Structure (SMILES): CC(C)C[C@@H](CC(=O)N[C@H](CC(=O)N[C@@H](CCC(=O)O)CC(=O)N[C@H](CC(=O)N[C@H](CC(=O)N[C@@H](CCCN)CC(=O)N[C@H](CC(=O)N[C@H](CC(=O)N[C@@H](CCC(=O)O)CC(=O)O)C(C)C)Cc1ccccc1)C(C)C)Cc1c[nH]c2ccccc12)C(C)C)NC(=O)C[C@@H](N)CCCN [β53-3]
- IC50 [2]: 1590 ± 104 µM
- oligomeric state [4, 15]: monomeric

Structure (SMILES): CC(C)C[C@H](N)CC(=O)N[C@@H](CCC(=O)O)CC(=O)N[C@H](CC(=O)N[C@H](CC(=O)N[C@@H](CCCN)CC(=O)N[C@H](CC(=O)N[C@H](CC(=O)N[C@@H](CCC(=O)O)CC(=O)O)Cc1ccccc1)C(C)C)Cc1c[nH]c2ccccc12)C(C)C [β53-5]
- IC50 [2, 14]: 80.8 ± 3.2 µM

Structure (SMILES): CC(C)[C@H](N)CC(=O)N[C@H](CC(=O)N[C@@H](CCCN)CC(=O)N[C@H](CC(=O)N[C@H](CC(=O)N[C@@H](CCC(=O)O)CC(=O)O)Cc1ccccc1)C(C)C)Cc1c[nH]c2ccccc12 [β53-6]
- IC50 fold better than β53-1 and β53-5 [2]: over 2 fold
- IC50 [2, 14]: 36.2 ± 2.6 µM

Structure (SMILES): CC(C)[C@H](N)CC(=O)N[C@H](CC(=O)N[C@@H](CCC(=O)O)CC(=O)NCCC(=O)O)Cc1c[nH]c2ccccc12 [β53-7, reference compound]
- IC50 ([2]; competition FP): > 1000 µM

Structure (SMILES): CC(C)C[C@@H](CC(=O)N[C@@H](CCC(=O)O)CC(=O)N[C@H](CC(=O)N[C@H](CC(=O)N[C@@H](CCCN)CC(=O)N[C@H](CC(=O)N[C@H](CC(=O)N[C@@H](CCC(=O)O)CC(=O)O)Cc1ccccc1)C(C)C)Cc1c[nH]c2ccccc12)C(C)C)NC(=O)[C@H]1CCCC[C@@H]1NC(=O)C[C@@H](N)CCCN [β53-AC2]
- Kd [1, 13]: 0.21 ± 0.04 µM
- IC50 ([2]; unlabeled ligand): 15.5 ± 1 µM
- oligomeric state [4]: no evidence of oligomerization

Structure (SMILES): CC(C)C[C@@H](CC(=O)N[C@@H](CCC(=O)O)CC(=O)N[C@H]1CCCC[C@@H]1C(=O)N[C@H](CC(=O)N[C@@H](CCCN)CC(=O)N[C@H](CC(=O)N[C@H](CC(=O)N[C@@H](CCC(=O)O)CC(=O)O)Cc1ccccc1)C(C)C)Cc1c[nH]c2ccccc12)NC(=O)C[C@@H](NC(=O)C[C@@H](N)CCCN)C(C)C [β53-AC5]
- Kd [1, 13]: 0.21 ± 0.04 µM
- IC50 ([2]; unlabeled ligand): 60.3 ± 3.8 µM
- oligomeric state [4]: discrete higher-order oligomers, likely hexamers or heptamers

Structure (SMILES): CC(C)C[C@@H](CC(=O)N[C@@H](CCC(=O)O)CC(=O)N[C@H](CC(=O)N[C@H](CC(=O)N[C@@H](CCCN)CC(=O)N[C@H]1CCCC[C@@H]1C(=O)N[C@H](CC(=O)N[C@@H](CCC(=O)O)CC(=O)O)Cc1ccccc1)Cc1c[nH]c2ccccc12)C(C)C)NC(=O)C[C@@H](NC(=O)C[C@@H](N)CCCN)C(C)C [β53-AC8]
- Kd [1, 13]: 0.22 ± 0.06 µM
- IC50 ([2]; unlabeled ligand): 10.5 ± 0.8 µM
- oligomeric state [4]: could indicate a monomer-dimer equilibrium at low millimolar concentrations

Structure (SMILES): CC(C)C[C@@H](CC(=O)N[C@@H](CCC(=O)O)CC(=O)N[C@H]1CCCC[C@@H]1C(=O)N[C@H](CC(=O)N[C@@H](CCCN)CC(=O)N[C@H]1CCCC[C@@H]1C(=O)N[C@H](CC(=O)N[C@@H](CCC(=O)O)CC(=O)O)Cc1ccccc1)Cc1c[nH]c2ccccc12)NC(=O)[C@H]1CCCC[C@@H]1NC(=O)C[C@@H](N)CCCN [β53-ACtrip]
- Kd [1, 13]: 0.17 ± 0.05 µM
- IC50 ([2]; unlabeled ligand): 17.2 ± 1.3 µM
- oligomeric state [4]: discrete higher-order oligomers, likely hexamers or heptamers

Structure (SMILES): CC(C)[C@@H](CC(=O)N[C@H](CC(=O)N[C@@H](CCC(=O)O)CC(=O)O)Cc1ccccc1)NC(=O)C[C@H](CCCN)NC(=O)C[C@H](C)NC(=O)C[C@@H](NC(=O)C[C@H](CCC(=O)O)NC(=O)C[C@H](C)NC(=O)C[C@@H](NC(=O)C[C@@H](N)CCCN)C(C)C)C(C)C [β53-F9]
- IC50 [2, 14]: 1700 ± 163 µM

Structure (SMILES): CC(C)C[C@@H](CC(=O)N[C@@H](CCC(=O)O)CC(=O)N[C@H](CC(=O)N[C@@H](C)CC(=O)N[C@@H](CCCN)CC(=O)N[C@H](CC(=O)N[C@@H](C)CC(=O)N[C@@H](CCC(=O)O)CC(=O)O)C(C)C)C(C)C)NC(=O)C[C@@H](NC(=O)C[C@@H](N)CCCN)C(C)C [β53-L3]
- IC50 [2, 14]: > 7000 µM

Structure (SMILES): CC(C)[C@@H](CC(=O)N[C@H](CC(=O)N[C@@H](CCCN)CC(=O)N[C@H](CC(=O)N[C@@H](C)CC(=O)N[C@@H](CCC(=O)O)CC(=O)O)C(C)C)Cc1c[nH]c2ccccc12)NC(=O)C[C@H](CCC(=O)O)NC(=O)C[C@H](C)NC(=O)C[C@@H](NC(=O)C[C@@H](N)CCCN)C(C)C [β53-W6]
- IC50 value fold higher than that of β53-1 [2]: 2 fold
- IC50 [2, 14]: 198 ± 10 µM

Structure (SMILES): CC[C@H](C)[C@@H](CC(=O)N[C@@H](CCC(=O)O)CC(=O)N[C@H](CC(=O)N[C@H](CC(=O)N[C@@H](CCCN)CC(=O)N[C@H](CC(=O)N[C@H](CC(=O)N[C@@H](CCC(=O)O)CC(=O)O)Cc1c[nH]c2ccccc12)C(C)C)Cc1c[nH]c2ccccc12)C(C)C)NC(=O)C[C@@H](NC(=O)C[C@@H](N)CCCN)C(C)C [βWWI-1]
- IC50 [6]: 4 ± 0.7 µM
- Kd [7]: ≥ 100 µM
- EC50 [8]: 27 ± 2.5 µM
- Kd [9]: 0.75 ± 0.1 µM
- Kd [10]: ≥ 115 µM

Structure (SMILES): CC[C@H](C)[C@@H](CC(=O)N[C@H](CC(=O)N[C@@H](CCC(=O)O)CC(=O)N[C@H](CC(=O)N[C@H](CC(=O)N[C@@H](CCCN)CC(=O)N[C@H](CC(=O)N[C@H](CC(=O)N[C@@H](CCC(=O)O)CC(=O)O)C(C)C)Cc1c[nH]c2ccccc12)C(C)C)Cc1c[nH]c2ccccc12)C(C)C)NC(=O)C[C@@H](N)CCCN [βWWI-2]
- IC50 [6]: 4.6 ± 0.4 µM
- EC50 [8]: 15 ± 1.6 µM
- Kd [9]: 1 ± 0.3 µM

Structure (SMILES): CC[C@H](C)[C@@H](CC(=O)N[C@H](CC(=O)N[C@@H](CCC(=O)O)CC(=O)O)C(C)C)NC(=O)C[C@H](CCCN)NC(=O)C[C@@H](NC(=O)C[C@H](Cc1c[nH]c2ccccc12)NC(=O)C[C@H](CCC(=O)O)NC(=O)C[C@@H](NC(=O)C[C@H](Cc1c[nH]c2ccccc12)NC(=O)C[C@@H](N)CCCN)C(C)C)C(C)C [βWWI-3]
- IC50 [6]: 13 ± 4.1 µM
- EC50 [8]: 13 ± 1.9 µM
- Kd [9]: 2.4 ± 0.7 µM

Structure (SMILES): CC[C@H](C)[C@@H](CC(=O)N[C@@H](CCC(=O)O)CC(=O)O)NC(=O)C[C@@H](NC(=O)C[C@H](CCCN)NC(=O)C[C@H](Cc1c[nH]c2ccccc12)NC(=O)C[C@@H](NC(=O)C[C@H](CCC(=O)O)NC(=O)C[C@H](Cc1c[nH]c2ccccc12)NC(=O)C[C@@H](NC(=O)C[C@@H](N)CCCN)C(C)C)C(C)C)C(C)C [βWWI-4]
- IC50 [6]: 3.3 ± 1.4 µM
- EC50 [8]: 5.3 ± 0.5 µM
- Kd [9]: 1.5 ± 0.4 µM

Structure (SMILES): N[C@H](CC(=O)O)Cc1c[nH]c2ccccc12 [β^3W, β^3-homotyptophan, reference compound]
- IC50 ([2]; competition FP): > 1000 µM
